# Patent US20080107603A1, “Neuroprotectant methods, compositions, and screening methods thereof” (priority 2002, published 2008)
# Experiments:
# [1] = Ox; cited from earlier work
# PC12 cells [2] = experiment: LDH release assay, Aβ25-35-treated PC12 cells; type: cell-based, Rat; conditions: 25 μM Aβ25-35-treated PC12 cells
# Protocol: PC12 cells were maintained in DMEM supplemented with 10% heat-inactivated horse serum and 5% fetal bovine serum at 37° C. in a humidified atmosphere of 10% CO2/90% air. All cells were cultured in poly-D-lysine coated culture dishes. The medium was changed every other day, and cells were plated at an appropriate density according to each experimental scale. After 24 h subculture, cells were switched to serum-free N-2 defined medium for treatment. For determination of cell viability, PC12 cells were initially plated at a density of 4×10^4 cells/300 μl in 48-well plates, and the cell viability was determined by the conventional MTT reduction and the lactate dehydrogenase (LDH) release assay as described below.
# This assay measures the leakage of the soluble cytoplasmic LDH enzyme into the extracellular medium due to cell lysis. PC12 cells were plated at the same density as for the MTT assay described above. The amount of lactate was measured by monitoring the oxidation of L-lactic acid by NAD^+ in the presence of LDH to pyruvate. The culture media were transferred to 96-well plate and incubated with 1 mg/ml β-NAD^+ in pyruvate substrate solution at 37° C. for 30 min. […] The changes in absorbance were determined at 450 nm using a spectrophotometric microplate reader.
# [3] = system: striatal dopamine content; experiment: 6-OHDA lesion rat model, striatal dopamine content; type: in vivo, Sprague-Dawley rats; conditions: treatment before 6-OHDA lesioning
# Protocol: Male Sprague-Dawley rats with starting weights 225±25 g, were housed in groups of 3 with free access to food and water, under controlled temperature (21° C.±1° C.) and a 12 hour light/dark cycle (light on 07.00 hrs). All scientific procedures were carried out with the approval of the Home Office, U.K. Rats were administered, by gavage, 70 mg/kg of ergothioneine or vehicle (sterile distilled water) daily for 4 days (n=6 per group). On the 4th day, 1 hr after L-ergothioneine or vehicle administration, rats were anaesthetized with small animal Immobilon® (0.04 ml/rat, i.m.), and 6-OHDA (5 μg dissolved in 4 μl of 0.1% ascorbic acid/saline solution) was injected onto median forebrain bundle (stereotactic co-ordinates: 2.2 mm anterior, +1.5 lateral from bregma and −7.9 ventral to dura with ear bars 5 mm below incisor bars (Datla et al. (2001) Neuroreport 12:3871, which reference is herein specifically incorporated by reference in its entirety). One week after 6-OHDA lesioning, rats were killed by cervical dislocation and the brains were dissected out immediately. A coronal section was made at the level of hypothalamus and fore brain, and hind brain parts were separated. […] Images of TH positive cells (TH+ cells) were captured by a Xillix CCD digital camera and counted automatically (Image Proplus, Datacell, U.K.). […]
# PARP = experiment: Western blot, Aβ25-35-induced cleavage of PARP; type: cell-based, Rat; conditions: 25 μM Aβ25-35, 36 h
# Protocol: After treatment, cells (1×10^7 cells/7 ml in 100φ dish) were collected and washed with PBS. After centrifugation, cell lysis was carried out at 4° C. by vigorous shaking for 15 min in RIPA buffer (150 mM NaCl, 1% NP-40, 0.5% sodium deoxycholate, 0.1% SDS, 50 mM Tris-HCl (pH 7.4), 50 mM glycerphosphate, 20 mM NaF, 20 mM EGTA, 1 mM DTT, 1 mM Na3VO4 and protease inhibitors). After centrifugation at 15,000 rpm for 15 min, supernatant was separated and stored at −70° C. until use. The protein concentration was determined by using the bicinchrinic acid (BCA) protein assay kit (Pierce, Rockford, Ill., USA). After addition of sample loading buffer, protein samples were electrophoresed on a 12.5% SDS-polyacrylamide gel. Proteins were transferred to polyvinylidene difluoride blots at 300 mA for 3 h. The blots were blocked for 1 h at room temperature in fresh blocking buffer (0.1% Tween-20 in Tris-buffered saline, pH 7.4 containing 5% non-fat dried milk). Dilutions (1:1000) of primary anti-poly(ADP-ribose)polymerase (PARP), anti-Bcl-XL and anti-Bax antibodies were made in PBS with 3% non-fat dry milk. Following three washes with PBST (PBS and 0.1% Tween-20), the blots were incubated with horseradish peroxidase-conjugated secondary antibodies in PBS with 3% non-fat dry milk for 1 h at room temperature. […]
# PC12 cells [4] = experiment: Lipid peroxidation (MDA, BIOXYTECH LPO-586); type: cell-based, Rat; conditions: Aβ25-35-treated PC12 cells; pretreatment for 30 min
# Protocol: The extent of lipid peroxidation in PC12 cells treated with Aβ25-35 was assessed using the commercially available calorimetric assay kit BIOXYTECH LPO-586 (OXIS Research, Portland, Oreg.). After exposure to 50 μM Aβ25-35 in the presence or absence of L-ergothioneine at 37° C. for 24 h, PC12 cells were harvested and homogenized in 20 mM Tris-HCl buffer (pH 7.4), containing 0.5 mM butylated hydroxytoluene to prevent sample oxidation. After centrifugation, 3.25 volumes of diluted R1 reagent (10.3 mM N-methyl-2-phenylindole in acetonitrile) was added to the supernatant, followed by gentle vortex mixing following the addition of 0.75 ml of 37% (v/v) HCl, the mixtures were incubated at 45° C. for 60 min. After cooling and centrifugation, the absorbance of the clear supernatant was read at 590 nm. The protein concentration was determined using the BCA protein assay kit.
smiles,measurement,setting,value
"C[N+](C)(C)[C@@H](Cc1c[nH]c(=S)[nH]1)C(=O)[O-] [L-ergothioneine, 2-mercaptohistidine trimethylbetaine]",L-Ergothioneine Concentration (mg/100 ml blood),[1],0.5-2 mg/100 ml blood
same,LDH release,PC12 cells [2],reduce the LDH release
same,loss of striatal dopamine content,[3],markedly reduced the loss
same,cleavage of PARP,PARP,inhibited
same,lipid peroxidation,PC12 cells [4],concentration dependent inhibition
